Experimental data: US20250057791A1, “PROTECTION AGAINST ARTHROPOD PARASITES WITH PURINERGIC RECEPTOR (OPR) ANTAGONISTS” (priority 2021, published 2025)
Residues, ends and D or L forms follow the SMILES beside them.

Key:
[1] = test system: A. gambiae mouthpart ATP-sensitive receptor; experiment: Electrophysiological response to 200 pM ATP with PR antagonist admixed; type: cell-based, Anopheles gambiae; conditions: for effect on EP response to ATP, in words: suramin at 1 nM; for ID95 in nM (±s.e.m.): increasing doses admixed to 200 pM ATP
Method: (§1) The tip recording method was used to record action potentials (spikes) from sensory cells in sensilla on A. gambiae labellum lobes.
(§2) Sensilla were exposed to test compounds and PR antagonists for ca. 2-4 s and spikes were counted in the first 2 s of recordings. Up to 4 test compounds were tested on a sensillum to evaluate potential agonists, each presented at 200 pM. To study responses as a function of dose for agonists ATP, adenosine, AMP, AMP-CPP and ATP+adenosine, up to 7 recordings were made at increasing doses of agonist from the same sensillum. Unless otherwise stated, recordings were made throughout from 4 to 16 sensilla from individual 4-6-day-old females per dose of agonist, antagonist and metal ion modulator. For example, a response curve established over 6 doses of an antagonist using 8 sensilla per dose involved recording from a sensillum of 48 separate mosquitoes. A given dose of a PR antagonist or metal ion modulator was only presented once to a sensillum. Two-second recordings were imported as ASCII files into DataView software for analysis of spike amplitude. Differences in spike amplitude generated by stimulation of one 8v sensillum/female with 1 mM sucrose (n=294 spikes from 6 females) 200 pM adenosine (n=207 spikes from 7 females) and 200 pM ATP (n=192 spikes from 7 females) were compared by measuring the spike amplitude in mV between the highest point of depolarisation and the lowest point of hyperpolarisation.
Pairwise comparisons of A. gambiae electrophysiological (EP) responses to ATP and adenosine alone and combined with a given dose of PR antagonist, EP responses to ATP alone and combined with a given dose of a metal modulator, and EP responses to ATP prior to and after exposure of a sensillum to a given dose of a PR antagonist were made with a one-tailed Wilcoxon signed-rank test for data showing a non-normal distribution, with a paired Student's t-test for normally distributed data showing homogeneous variance and with a Welch's t-test for normally distributed data showing non-homogeneous variance. Effects on feeding of adding ATP, AMP-CPP, adenosine, ATP+adenosine, AMP and ADP-βS, CPT with ATP or adenosine, TMP with ATP+adenosine, TMP+CPT with ATP+adenosine to the FS for A. gambiae, and of adding PR antagonists with ATP to the FS for A. stephensi were compared using one-tailed Mann-Whitney U-test or Welch's t-test, depending on data distribution; Holm's FWEC was applied where treatment comparisons involved the same positive control. Percent feeding inhibition induced by PR antagonists in A. stephensi was calculated using Abbott's formula.
Dose-response models fitted to mosquito data were generated using the ‘drm’ command in the “drc” R package (version 2.5-12). Best fitting models (goodness of fit) and effects of dose of a compound were assessed using, respectively, ‘modelFit’ and ‘noEffect’ functions in the same R package. A 3-parameter logistic model (L3) was fitted to spike-counts recorded to increasing doses of adenosine, AMP, ATP and AMP-CPP. Spike numbers recorded in response to 200 pM ATP with increasing doses of PR antagonists added were analysed using a 4-parameter log-logistic model (LL.4) for A-317491 and spinorphin, using a 4-parameter Weibull model (W1.4) for PPADS, RB-2 and TMP, and using a 3-parameter log-logistic model (LL.3) for suramin. An L3 model was fitted to proportions of females feeding on increasing doses of ATP. Feeding rates on 20 μM ATP with increasing doses of a PR antagonist added were analysed using a 4-parameter log-logistic model (LL.4) with the median of the positive control (20 μM ATP) fixed as the upper asymptote. Response dynamics in 3-parameter models are related to the slope b, the upper asymptote, and inflexion point of the model e (the ED50 value), whereas 4 parameter models also include the lower asymptote parameter. […]

[2] = test system: malaria mosquito P1 PR; experiment: Electrophysiological response to 200 pM adenosine with PR antagonist admixed; type: cell-based, Anopheles gambiae
Method: as §1
as §2, with “Differences in spike amplitude generated by stimulation of one 8v sensillum/female with 1 mM sucrose (n=294 spikes from 6 females) 200 pM adenosine (n=207 spikes from 7 females) and 200 pM ATP (n=192 spikes from 7 females) were compared by measuring the spike amplitude in mV between the highest point of depolarisation and the lowest point of hyperpolarisation.” left out
Pairwise comparisons of A. gambiae electrophysiological (EP) responses to ATP and adenosine alone and combined with a given dose of PR antagonist, EP responses to ATP alone and combined with a given dose of a metal modulator, and EP responses to ATP prior to and after exposure of a sensillum to a given dose of a PR antagonist were made with a one-tailed Wilcoxon signed-rank test for data showing a non-normal distribution, with a paired Student's t-test for normally distributed data showing homogeneous variance and with a Welch's t-test for normally distributed data showing non-homogeneous variance. […] Percent feeding inhibition induced by PR antagonists in A. stephensi was calculated using Abbott's formula.

[3] = test system: A. gambiae; experiment: Membrane feeding assay, A. gambiae; type: in vivo, Anopheles gambiae; conditions: for effect on feeding on solution containing ATP, in words: 20 μM ATP, CPT at 10 μM
Method: (§3) Experiments with A. gambiae and A. stephensi were made in a climate chamber at 28° C. and 80% RH during the last 6 hours of scotophase. As a sugar meal can interfere with the blood meal by reducing the number of females that feed, the sucrose solution supplied in rearing cages to mosquitoes employed for feeding experiments was reduced to 5%. […] The 5% sucrose solution was presented to mosquitoes from emergence on four 1 cm diam. cotton dental rolls (Hartmann A G, Neuhausen, Switzerland) inserted in 10 ml upturned glass vials placed in holes at each corner of the rearing cage ceiling. Cotton rolls were turned daily in vials and renewed every two days. Mosquitoes were not fed blood and were deprived of sucrose 17 to 20 hours before experiments. Thirty min before a feeding experiment, between 10-25, 6-day-old females that responded to activation by human breath were removed with a mouth aspirator from the rearing cage wall and placed in polystyrol cylinders with the floor cut out (10 cm dm×15 cm high; Semadeni, Ostermundigen, Switzerland) that served as feeding cages. Each cage was covered with mosquito netting at one end and a soft polyurethane lid at the other.
(§4) Mosquitoes were fed for 30 min using a feeding system (Hemotek®, Hemotek Ltd, Blackburn, UK) consisting of 3.5 ml stainless steel reservoirs 37 mm in diameter covered with a 60-90 μm thick silicone-impregnated membrane (Kröber and Guerin, 2007 in “Feeding assays for hard ticks”, Trends in parasitology 23, 445-449; doi 10.1016/j.pt.2007.07.010). Feeding reservoirs reached a temperature of 37° C. within 10 min and were placed on the netting of feeding cages. Mosquitoes were activated using a 200 ms pulse of pure CO2 (volume 6.25 ml) from a pressurised cylinder (Carbagas, Switzerland) using a solenoid valve that caused the CO2 level in the feeding cage to rise to at least 1,500 ppm. Between 3 and 4 sets of 10 feeding cages held in a custom-built Ertacetal® POM frame were tested per day, depending of the number of female mosquitoes available from the colony.
(§5) All compounds were tested in a mosquito feeding solution (FS) consisting of 25 mM dextrose, 25 mM NaCl buffered with 8.93 mM NaHCO3 adjusted to pH 7.4. Feeding responses of A. gambiae and A. stephensi to ATP as a function of dose were tested with between 7 to 10 feeding cages per dose. Each feeding experiment with an antagonist systematically included a treatment containing the FS as negative control along with a treatment containing the FS with 20 pM ATP added as positive control for A. gambiae and with 160 pM ATP added as positive control for A. stephensi. These positive and negative controls permitted to monitor any effect of experimental day on feeding responses as a function of dose for antagonists that were recorded over several days. […] Four to 10 cages each with 10 to 29 mosquitoes were tested per antagonist dose. […] The number of feeding cages used to test other compounds and their mixtures as feeding stimulants or as feeding inhibitors is listed on Table 6. The percentage of fed mosquitoes was estimated by visual inspection of abdominal distention that is indicative of engorgement.
(§6) Pairwise comparisons of A. gambiae electrophysiological (EP) responses to ATP and adenosine alone and combined with a given dose of PR antagonist, EP responses to ATP alone and combined with a given dose of a metal modulator, and EP responses to ATP prior to and after exposure of a sensillum to a given dose of a PR antagonist were made with a one-tailed Wilcoxon signed-rank test for data showing a non-normal distribution, with a paired Student's t-test for normally distributed data showing homogeneous variance and with a Welch's t-test for normally distributed data showing non-homogeneous variance. […]

[4] = test system: A. stephensi; experiment: Membrane feeding assay, A. stephensi; type: in vivo, Anopheles stephensi
Method: as §3, §4
as §5, with “with 20 pM ATP added as positive control for A. gambiae and with 160 pM ATP added as positive control for A. stephensi.” left out
as §6

For Cn1c(=O)c2[nH]c(C3CCCC3)nc2n(C)c1=O [CPT, 8-cyclopentyl-1,3-dimethylxanthine], the “effect on EP response to ATP, in words” value ([1]; 200 pM ATP) was “not”, the “effect on EP response to adenosine, in words” value ([2]; 200 pM adenosine, suramin at 1 nM) was “inhibited” and the “duration of inhibition of the response to adenosine” value ([2]; adenosine presented again approximately 2 min after antagonist) was “at least 2 min”. For the same molecule, the “% Engorged mosquitoes” value ([3]; 10 μM CPT + 20 μM ATP) was 65.4 ± 10.2%, the “% Engorged mosquitoes” value ([3]; 10 μM CPT + 1 mM Adenosine) was 48.7 ± 7.0% and the “effect on feeding on adenosine, in words” value ([3]; 10 μM CPT, 1 mM adenosine in feeding solution) was “significantly inhibited”. For the same molecule, the “effect on feeding on solution containing ATP, in words” value [3] was “not”.
With Cc1nc(/N=N/c2ccc(S(=O)(=O)O)cc2S(=O)(=O)O)c(COP(=O)(O)O)c(C=O)c1O [PPADS, pyridoxal phosphate-6-azophenyl-2′,4′-disulfonic acid] the “Mean no. of spikes per 2 s (±s.e.m.), ATP + antagonist” value (from here on “Mean no. of spikes per 2 s”) ([1]; antagonist 50 nM + 200 pM ATP) was 8.13 spikes per 2 s, the “ID95 in nM (±s.e.m.)” value [1] was 12.66 nM and the “effect on feeding on solution containing ATP, in words” value [3] was “inhibited feeding”. For the same molecule, the “% fed mosquitoes (mean ± s.e.m.), ATP + antagonist” value (shortened to “% fed mosquitoes”) ([3]; antagonist 100 μM + 20 μM ATP) was 33.39%, the “% Fed females (mean ± s.e.m.)” value ([4]; 800 μM, feeding solution with 160 μM ATP) was 37.29 ± 3.75% and the inhibition at 800 µM ([4]; Anopheles stephensi, 800 μM, Abbott's formula) was 48.9%. The “effect on feeding on solution containing ATP, in words” value ([4]; doses as in Table 8) was “inhibited feeding”.
For Nc1c(S(=O)(=O)O)cc(Nc2ccc(Nc3nc(Cl)nc(Nc4cccc(S(=O)(=O)O)c4)n3)c(S(=O)(=O)O)c2)c2c1C(=O)c1ccccc1C2=O [RB-2, 1-amino-4-[[4-[[4-chloro-6-[[3 (or 4)-sulfophenyl]amino]-1,3,5-triazin-2-yl]amino]-3-sulfophenyl]amino]-9,10-dihydro-9,10-dioxo-2-anthracenesulfonic acid], the “persistent antagonism to ATP presented approximately 2 min later, in words” value ([1]; 200 pM ATP) was “not”, the “effect on EP response to ATP, in words” value ([1]; 200 pM ATP) was “inhibited” and the “Mean no. of spikes per 2 s” value ([1]; antagonist 50 nM + 200 pM ATP) was 12.83 spikes per 2 s. For the same molecule, the “ID95 in nM (±s.e.m.)” value [1] was 113.02 nM, the “effect on feeding on solution containing ATP, in words” value [3] was “inhibited feeding” and the “% fed mosquitoes” value ([3]; antagonist 0.1 μM + 20 μM ATP) was 32.88%.
For CC(C)C[C@H](N)C(=O)N[C@H](C(=O)N[C@H](C(=O)N[C@@H](Cc1ccc(O)cc1)C(=O)N1CCC[C@H]1C(=O)N[C@@H](Cc1c[nH]c2ccccc12)C(=O)N[C@H](C(=O)O)[C@@H](C)O)C(C)C)C(C)C [Spinorphin, L-leucyl-L-valyl-L-valyl-L-tyrosly-L-prolyl-L-tryptophyl-L-threonine] (H-LVVYPWT-OH), the “effect on EP response to ATP, in words” value ([1]; 200 pM ATP) was “inhibited”, the “Mean no. of spikes per 2 s” value ([1]; antagonist 1 nM + 200 pM ATP) was 9.8 spikes per 2 s and the “ID95 in nM (±s.e.m.)” value [1] was 0.43 nM. The “ID95 in nM (±s.e.m.)” value ([1]; listed as spinorphin) was “ca. 0.4 nM”, the “% reduction in feeding” value ([3]; 100 nM, with 20 μM ATP) was “(100 nM, 27.31%)” and the “effect on feeding on solution containing ATP, in words” value [3] was “inhibited feeding”. For the same molecule, the “% fed mosquitoes” value ([3]; antagonist 100 nM + 20 μM ATP) was 46.62%.
For Cn1c(=O)c2[nH]cnc2n(C)c1=O [Theophylline, 1,3-dimethylxanthine], the “EP response, adenosine theophylline combination” value ([2]; 1 μM theophylline + 200 pM adenosine) was 17.63±4.48 spikes/2s.
